Among the test systems are EKVX NSCLC; HL-60(TB) leukemia; HOP-62 NSCLC; M14 melanoma; MALME-3M melanoma; MOLT-4 leukemia; SF-539 CNS; SN12C renal; SNB-75 CNS; ACHN renal.
What all share (assay): NCI anticancer screen, dose series, 48 h

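Assay format: 96-well plates, 48-hour exposure. At the GI50, growth is halved. Definition used: TGI = concentration required for complete inhibition of growth.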

The text below walks through data of PubChem BioAssay (NCI).

Take `C[C@]12CC[C@H](O)CC1CCC[C@@H]2O` (some centres undefined): the TGI in the assay with EKVX NSCLC, in the assay on HL-60(TB) leukemia, in the assay on HOP-62 NSCLC, in the assay on M14 melanoma, in the assay on MALME-3M melanoma and in the assay with MOLT-4 leukemia was more than 100 µM throughout. The TGI with SF-539 CNS, in the assay on SN12C renal and in the assay with SNB-75 CNS was more than 100 µM throughout.
As for `Cn1cc(C2=C(c3cn(CCCN/C(N)=N\[N+](=O)[O-])c4ccccc34)C(=O)NC2=O)c2ccccc21`, the GI50 in the assay with ACHN renal was 6.26 µM; in the assay with HL-60(TB) leukemia, 1.23 µM; with HOP-62 NSCLC, 3.89 µM; in the assay with M14 melanoma, 4.8 µM; in the assay on MALME-3M melanoma, 6.38 µM; in the assay with MOLT-4 leukemia, 2.25 µM. The GI50 with SF-539 CNS is 0.968 µM; in the assay on SN12C renal, 2.65 µM; with SNB-75 CNS, 0.161 µM. Moreover, the TGI in the assay with ACHN renal is more than 25 µM; in the assay with HL-60(TB) leukemia, 7.66 µM; with HOP-62 NSCLC, more than 16.6 µM; in the assay on M14 melanoma it was 12.3 µM; in the assay on MALME-3M melanoma it was 15.9 µM; in the assay with MOLT-4 leukemia it was more than 16.4 µM. Also, the TGI in the assay on SF-539 CNS worked out at 5.11 µM; in the assay with SN12C renal, 16.6 µM; in the assay on SNB-75 CNS, 7.92 µM.
Consider `Nc1c2c(c(O)c3c1=C(CO)C=N3)=NCCS2=O` (centres undefined), for which the GI50 is 2.51 µM in the assay on EKVX NSCLC; 1.94 µM in the assay on HL-60(TB) leukemia; 1.86 µM in the assay on HOP-62 NSCLC; 1.59 µM in the assay on M14 melanoma; 0.253 µM with MALME-3M melanoma; 1.24 µM in the assay on MOLT-4 leukemia. The GI50 is 1.65 µM in the assay on SF-539 CNS, 1.66 µM in the assay on SN12C renal and 1.74 µM in the assay on SNB-75 CNS. The TGI in the assay on EKVX NSCLC was 7.51 µM; in the assay with HL-60(TB) leukemia, 4.5 µM; in the assay with HOP-62 NSCLC, 3.38 µM; in the assay on M14 melanoma it was 3.09 µM; with MALME-3M melanoma, 0.739 µM; in the assay on MOLT-4 leukemia, 4.22 µM. The TGI with SF-539 CNS was 3.06 µM; with SN12C renal it was 3.57 µM; in the assay with SNB-75 CNS, 3.18 µM.
For the compound `COc1cccc(-c2nn(C)c3sc(C(=O)NCCN4CCN(c5ccccc5F)CC4)cc23)c1`, the GI50 in the assay with ACHN renal is 19.2 µM; in the assay with HL-60(TB) leukemia, 33.1 µM; in the assay on HOP-62 NSCLC, 25.8 µM; with MALME-3M melanoma, 9.49 µM; with MOLT-4 leukemia it was 5.15 µM; with SF-539 CNS it was 9.45 µM. In addition, the GI50 in the assay with SN12C renal is 79.5 µM; in the assay on SNB-75 CNS, 3.59 µM. For the same compound, the TGI with ACHN renal is more than 100 µM; with HL-60(TB) leukemia, more than 100 µM; with HOP-62 NSCLC, more than 100 µM; in the assay on MALME-3M melanoma it was 53.5 µM; in the assay with MOLT-4 leukemia it was more than 100 µM; in the assay with SF-539 CNS, more than 100 µM. The TGI with SN12C renal was more than 100 µM; with SNB-75 CNS, 95.3 µM.
In the case of `CCCCCCCCCCCC(=O)[O][Sn]([CH2]CCC)([CH2]CCC)[CH2]CCC`, the GI50 was 0.0596 µM in the assay on ACHN renal; 0.0567 µM in the assay with HL-60(TB) leukemia; 0.0795 µM in the assay on HOP-62 NSCLC; 0.0548 µM in the assay with M14 melanoma; 0.0211 µM with MALME-3M melanoma; 0.0436 µM with MOLT-4 leukemia. Besides, the GI50 in the assay with SF-539 CNS was 0.0609 µM; in the assay on SN12C renal, 0.0767 µM; in the assay with SNB-75 CNS it was 0.0282 µM. Besides, the TGI in the assay with ACHN renal was found to be 0.157 µM; with HL-60(TB) leukemia it was 0.155 µM; with HOP-62 NSCLC it was 0.232 µM; in the assay on M14 melanoma, 0.142 µM; with MALME-3M melanoma, 0.0772 µM; in the assay with MOLT-4 leukemia, 0.732 µM. The TGI in the assay with SF-539 CNS amounted to 0.141 µM; with SN12C renal, 0.221 µM; with SNB-75 CNS, 0.113 µM.
Consider `O=C1OC(=O)C2C1C1(c3ccccc3)OC2(c2ccccc2)c2c(Br)c(Br)c(Br)c(Br)c21` (centres undefined), for which the TGI in the assay with EKVX NSCLC, in the assay on HL-60(TB) leukemia, in the assay with HOP-62 NSCLC, in the assay on M14 melanoma, in the assay on MALME-3M melanoma and with MOLT-4 leukemia was more than 100 µM in each case. Also, the TGI in the assay on SF-539 CNS, with SN12C renal and in the assay on SNB-75 CNS was more than 100 µM each time.
For the compound `CCOC(=O)/C(C#N)=C/c1[nH]c(C)c(C)c1C`, the TGI with EKVX NSCLC, in the assay with HL-60(TB) leukemia, in the assay on HOP-62 NSCLC, with M14 melanoma, in the assay with MALME-3M melanoma and with MOLT-4 leukemia was more than 100 µM in each case. The TGI with SF-539 CNS, in the assay on SN12C renal and in the assay on SNB-75 CNS was more than 100 µM each time.
Turning to `O=C(Nc1ccc(-n2cc(-c3ccncc3)c(-c3ccc(Cl)c(O)c3)n2)cc1)c1ccc(Cl)c(C(F)(F)F)c1`, the GI50 with ACHN renal is 1.55 µM; in the assay on EKVX NSCLC it was 4.65 µM; in the assay with HL-60(TB) leukemia it was 1.19 µM; in the assay on HOP-62 NSCLC, 0.622 µM; in the assay with M14 melanoma, 1.16 µM; with MOLT-4 leukemia it was 0.652 µM. Besides, the GI50 was 0.65 µM with SF-539 CNS, 4.39 µM in the assay on SN12C renal and 0.362 µM in the assay with SNB-75 CNS. The TGI was 5.28 µM in the assay on ACHN renal; more than 25 µM in the assay on EKVX NSCLC; 2.2 µM in the assay with HOP-62 NSCLC; 3.29 µM in the assay on M14 melanoma; more than 29.3 µM in the assay on MOLT-4 leukemia; 2.99 µM with SF-539 CNS. Besides, the TGI with SN12C renal is more than 83.6 µM; in the assay on SNB-75 CNS, 1.9 µM.
